In US8586617B2, “Aminomethyl-4-imidazoles” (Hoffmann-La Roche Inc., priority 2006, dated 2013):
Where two headings read alike, the source gives them in different places.

Target: TAAR1 (Mus musculus (Mouse), UniProt Q923Y8)
Assay: TAAR1 radioligand binding assay ([3H]-rac-2-(1,2,3,4-tetrahydro-1-naphthyl)-2-imidazoline, membranes of stably transfected HEK293 cells)
[1] = read-out: Ki (μM) mouse, mouse TAAR1, radioligand [3H]-rac-2-(1,2,3,4-tetrahydro-1-naphthyl)-2-imidazoline at 60 nM, 4° C., 30 minutes

TAAR1, sequence (Q923Y8 whole entry): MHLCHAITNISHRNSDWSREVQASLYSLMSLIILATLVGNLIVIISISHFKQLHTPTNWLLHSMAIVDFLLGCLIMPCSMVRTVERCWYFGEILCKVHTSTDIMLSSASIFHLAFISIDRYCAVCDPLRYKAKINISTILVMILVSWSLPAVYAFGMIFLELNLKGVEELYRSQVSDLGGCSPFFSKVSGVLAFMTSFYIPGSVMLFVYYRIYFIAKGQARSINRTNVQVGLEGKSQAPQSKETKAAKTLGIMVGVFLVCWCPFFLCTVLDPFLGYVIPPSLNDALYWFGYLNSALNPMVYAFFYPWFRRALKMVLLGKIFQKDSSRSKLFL
Protocol: The ability of the compounds of the present invention to bind to TAAR1 was investigated in accordance with the test given hereinafter.
For the generation of stably transfected cell lines HEK293 cells were transfected with the pIRESneo2 expression plasmids containing the TAAR coding sequences (described above) with Lipofectamine 2000 (Invitrogen) according to the instructions of the manufacturer, and 24 hours post transfection the culture medium was supplemented with 1 mg/ml G418 (Sigma, Buchs, Switzerland). After a culture period of about 10 days, clones were isolated, expanded and tested for responsiveness to trace amines (all compounds purchased from Sigma) with the cAMP Biotrak Enzyme immunoassay (EIA) System (Amersham) following the non-acetylation EIA procedure provided by the manufacturer.
Cells at confluence were rinsed with ice-cold phosphate buffered saline without Ca^2+ and Mg^2+ containing 10 mM EDTA and pelleted by centrifugation at 1000 rpm for 5 min at 4° C. The pellet was then washed twice with ice-cold phosphate buffered saline and cell pellet was frozen immediately by immersion in liquid nitrogen and stored until use at −80° C. The cell pellet was then suspended in 20 ml HEPES-NaOH (20 mM), pH 7.4 containing 10 mM EDTA, and homogenized with a Polytron (PT 3000, Kinematica) at 10,000 rpm for 10 seconds. The homogenate was centrifuged at 48,000×g for 30 minutes at 4° C. and the pellet resuspended in 20 ml HEPES-NaOH (20 mM), pH 7.4 containing 0.1 mM EDTA (buffer A), and homogenized with a Polytron at 10,000 rpm for 10 seconds. The homogenate was then centrifuged at 48,000×g for 30 minutes at 4° C. and the pellet resuspended in 20 ml buffer A, and homogenized with a Polytron at 10,000 rpm for 10 seconds. […] The homogenate was then centrifuged at 48,000×g for 10 minutes at 4° C., resuspended in HEPES-NaOH (20 mM), pH 7.0 including MgCl2 (10 mM) and CaCl2 (2 ml) (buffer B) at 200 μg protein per ml and homogenized with a Polytron at 10,000 rpm for 10 seconds.
Binding assay was performed at 4° C. in a final volume of 1 ml, and with an incubation time of 30 minutes. […] Non-specific binding was defined as the amount of [^3H]-rac-2-(1,2,3,4-tetrahydro-1-naphthyl)-2-imidazoline bound in the presence of the appropriate unlabelled ligand (10 μM). Competing ligands were tested in a wide range of concentrations (10 pM-30 μM). […] Each experiment was performed in duplicate. All incubations were terminated by rapid filtration through UniFilter-96 plates (Packard Instrument Company) and glass filter GF/C, pre-soaked for at least 2 h in polyethylenimine 0.3%, and using a Filtermate 96 Cell Harvester (Packard Instrument Company). The tubes and filters were then washed 3 times with 1 ml aliquots of cold buffer B. Filters were not dried and soaked in Ultima gold (45 D/well, Packard Instrument Company) and bound radioactivity was counted by a TopCount Microplate Scintillation Counter (Packard Instrument Company).

Ki [1]	Ki	SMILES
0.003 µM	–	CC(C)N(Cc1cnc[nH]1)c1ccc(F)c(Oc2ccccc2)c1 [Example 208, (4-Fluoro-3-phenoxy-phenyl)-(3H-imidazol-4-ylmethyl)-isopropyl-amine]
0.002 µM	–	CC(C)c1cccc(NCc2cnc[nH]2)c1 [Example 228, (3H-Imidazol-4-ylmethyl)-(3-isopropyl-phenyl)-amine]
–	0.009 µM	CCN(Cc1cnc[nH]1)c1cccc(C(F)(F)F)n1 [Example 251, Ethyl-(1H-imidazol-4-ylmethyl)-(6-trifluoromethyl-pyridin-2-yl)-amine]
0.001 µM	–	CCN(Cc1cnc[nH]1)c1cccc(OCc2ccccc2)c1 [Example 192, (3-Benzyloxy-phenyl)-ethyl-(3H-imidazol-4-ylmethyl)-amine]
0.001 µM	–	CCN(Cc1cnc[nH]1)c1cc(F)cc(Cl)c1 [Example 308, (3-Chloro-5-fluoro-phenyl)-ethyl-(1H-imidazol-4-ylmethyl)-amine]
0.002 µM	–	Clc1cc(NCc2cnc[nH]2)ccc1Br [Example 325, (4-Bromo-3-chloro-phenyl)-(1H-imidazol-4-ylmethyl)-amine]
0.001 µM	–	Brc1cccc(NCc2cnc[nH]2)c1 [Example 225, (3-Bromo-phenyl)-(3H-imidazol-4-ylmethyl)-amine]
0.0094 µM	–	c1ccc(Nc2ccc(NCc3cnc[nH]3)cc2)cc1 [Example 155, N-(1H-Imidazol-4-ylmethyl)-N′-phenyl-benzene-1,4-diamine]
0.001 µM	–	CC(C)N(Cc1cnc[nH]1)c1ccc(Br)c(Cl)c1 [Example 331, (4-Bromo-3-chloro-phenyl)-(1#H!-imidazol-4-ylmethyl)-isopropyl-amine]
0.0098 µM	–	Fc1cc(NCc2cnc[nH]2)ccc1Br [Example 181, (4-Bromo-3-fluoro-phenyl)-(1H-imidazol-4-ylmethyl)-amine]
0.0025 µM	–	CC(C)N(Cc1cnc[nH]1)c1ccc(F)c(Br)c1 [Example 170, (3-Bromo-4-fluoro-phenyl)-(3H-imidazol-4-ylmethyl)-isopropyl-amine]
0.004 µM	–	Brc1ccc(NCc2cnc[nH]2)cc1Br [Example 279, (3,4-Dibromo-phenyl)-(1H-imidazol-4-ylmethyl)-amine]
0.001 µM	–	CCN(Cc1cnc[nH]1)c1cc(Cl)cc(Cl)c1 [Example 303, (3,5-Dichloro-phenyl)-ethyl-(1H-imidazol-4-ylmethyl)-amine]
0.002 µM	–	CCN(Cc1cnc[nH]1)c1cc(F)cc(F)c1 [Example 306, (3,5-Difluoro-phenyl)-ethyl-(1H-imidazol-4-ylmethyl)-amine]
0.008 µM	–	CCN(Cc1cnc[nH]1)c1cccc(OC)c1 [Example 193, Ethyl-(3H-imidazol-4-ylmethyl)-(3-methoxy-phenyl)-amine]
0.001 µM	–	CCN(Cc1cnc[nH]1)c1ccc(F)c(Cl)c1 [Example 312, (3-Chloro-4-fluoro-phenyl)-ethyl-(1H-imidazol-4-ylmethyl)-amine]
0.0024 µM	–	CCN(Cc1cnc[nH]1)c1cccc(Oc2ccccc2)c1 [Example 188, Ethyl-(3H-imidazol-4-ylmethyl)-(3-phenoxy-phenyl)-amine]
0.001 µM	–	CC(C)N(Cc1cnc[nH]1)c1ccc(Br)c(Br)c1 [Example 297, (3,4-Dibromo-phenyl)-(1H-imidazol-4-ylmethyl)-isopropyl-amine]
0.001 µM	–	FC(F)(F)c1cc(Br)cc(NCc2cnc[nH]2)c1 [Example 226, (3-Bromo-5-trifluoromethyl-phenyl)-(3H-imidazol-4-ylmethyl)-amine]
0.002 µM	–	CN(Cc1cnc[nH]1)c1ccc(Cl)c(Cl)c1 [Example 288, (3,4-Dichloro-phenyl)-(1H-imidazol-4-ylmethyl)-methyl-amine]

The next lines start with the compound.

SMILES	Ki [1]	Ki
CCN(Cc1cnc[nH]1)c1ccc(Br)c(F)c1 [Example 305, (4-Bromo-3-fluoro-phenyl)-ethyl-(1H-imidazol-4-ylmethyl)-amine]	0.002 µM	–
CCN(Cc1cnc[nH]1)c1ccc(F)c(F)c1 [Example 58, (3,4-Difluoro-phenyl)-ethyl-(3H-imidazol-4-ylmethyl)-amine]	0.0014 µM	–
CCN(Cc1cnc[nH]1)c1ccc(C)c(C)c1 [Example 130, (3,4-Dimethyl-phenyl)-ethyl-(1H-imidazol-4-ylmethyl)-amine]	0.0039 µM	–
CCN(Cc1cnc[nH]1)c1ccc(Oc2ccc(Cl)cc2)c(Cl)c1 [Example 139, [3-Chloro-4-(4-chloro-phenoxy)-phenyl]-ethyl-(1H-imidazol-4-ylmethyl)-amine]	0.0039 µM	–
CC(C)N(Cc1cnc[nH]1)c1cccc(OCc2ccccc2)c1 [Example 114, (3-Benzyloxy-phenyl)-(3H-imidazol-4-ylmethyl)-isopropyl-amine]	0.0041 µM	–
CN(Cc1cnc[nH]1)c1ccc(Cl)cc1 [Example 10, (4-Chloro-phenyl)-(3H-imidazol-4-ylmethyl)-methyl-amine]	0.0045 µM	–
Cc1ccc(N(Cc2cnc[nH]2)C(C)C)cc1Cl [Example 128, (3-Chloro-4-methyl-phenyl)-(1H-imidazol-4-ylmethyl)-isopropyl-amine]	0.0023 µM	–
CCN(Cc1cnc[nH]1)c1ccc(F)c(OC)c1 [Example 194, Ethyl-(4-fluoro-3-methoxy-phenyl)-(3H-imidazol-4-ylmethyl)-amine]	0.0048 µM	–
CC(C)N(Cc1cnc[nH]1)c1cccc(Oc2ccccc2)c1 [Example 123, (3H-Imidazol-4-ylmethyl)-isopropyl-(3-phenoxy-phenyl)-amine]	0.0021 µM	–
CC(C)N(Cc1cnc[nH]1)c1ccc2ccccc2c1 [Example 70, (3H-Imidazol-4-ylmethyl)-isopropyl-naphthalen-2-yl-amine]	0.0082 µM	–
CC(C)N(Cc1cnc[nH]1)c1cccc(C(F)(F)F)c1 [Example 27, (3H-Imidazol-4-ylmethyl)-isopropyl-(3-trifluoromethyl-phenyl)-amine]	0.0023 µM	–
CC(C)N(Cc1cnc[nH]1)c1ccc(OC(F)(F)F)c(Cl)c1 [Example 33, (3-Chloro-4-trifluoromethoxy-phenyl)-(3H-imidazol-4-ylmethyl)-isopropyl-amine]	0.0028 µM	–
CC(C)N(Cc1cnc[nH]1)c1cccc(OC(F)(F)C(F)F)c1 [Example 125, (3H-Imidazol-4-ylmethyl)-isopropyl-[3-(1,1,2,2-tetrafluoro-ethoxy)-phenyl]-amine]	0.0044 µM	–
CC(C)N(Cc1cnc[nH]1)c1ccc(F)c(F)c1 [Example 77, (3,4-Difluoro-phenyl)-(3H-imidazol-4-ylmethyl)-isopropyl-amine]	0.0053 µM	–
CCN(Cc1cnc[nH]1)c1ccc(OC(F)(F)F)c(Cl)c1 [Example 333, (3-Chloro-4-trifluoromethoxy-phenyl)-ethyl-(1H-imidazol-4-ylmethyl)-amine]	0.001 µM	–
CCN(Cc1cnc[nH]1)c1cccc(OC(F)F)c1 [Example 195, (3-Difluoromethoxy-phenyl)-ethyl-(3H-imidazol-4-ylmethyl)-amine]	0.0042 µM	–
CC(C)N(Cc1cnc[nH]1)c1ccc(Cl)c(C(F)(F)F)c1 [Example 31, (4-Chloro-3-trifluoromethyl-phenyl)-(3H-imidazol-4-ylmethyl)-isopropyl-amine]	0.0045 µM	–
CN(Cc1cnc[nH]1)c1cccc(OCc2ccccc2)c1 [Example 190, (3-Benzyloxy-phenyl)-(3H-imidazol-4-ylmethyl)-methyl-amine]	0.0014 µM	–
